# Source: patent publication US20160113904A1, “SKIN CARE PRODUCTS COMPRISING SUBSTITUTED HYDROXYPROLINE WITH UNSATURATED FATTY ACIDS DERIVATIVES” (MEDWELL LABORATORIES LTD., priority 2013, published 2016)
# “Also recorded” adds a separate entry of the source.
# Assays:
# Type in all cases: in vivo, human
# [1] = system: healthy female volunteers; experiment: Anti wrinkle test: side effects; conditions: facial use for 4 weeks
# From the text: Volunteers were asked to report side effects, such as dryness, burning sensation, peeling of the skin, redness, etc. immediately to the study director.
# [2] = system: volunteers with Atopic dermatitis; experiment: Atopic dermatitis trial: side effects; conditions: topical product use
# From the text: The participants were asked to keep a record of the daily applications in a diary and to note any side effects resulting from the product application.
# In addition to keeping records of side effects, volunteers were asked to immediately report any side effects, such as dryness, burning sensation, peeling of the skin, redness, etc. to 1SR.
# [3] = system: volunteers with psoriasis; experiment: Psoriasis trial: study director's evaluation of lesions; conditions: for Redness level / Scale level / Thickness of the Skin / Infected area size: treated area
# Protocol: In Examples 1-3 an emulsion type O/W Creams of MWL-001 (2.5% and 5% w/w) was prepared using Emulgade® SE emulsifiers (glyceryl stearate), Ceteareth-20, cetearyl alcohol, cetyl palmitate, cetearyl alcohol-Lanette®, isopropyl myristate, caprilic/capric acid triglycerides (Myritol®318), strearic acid, a Trietanolamine and purified water, according to Ph Eur 6.0.
# (§1) Fifteen volunteers aged 29-73 with psoriasis.
# The volunteers were instructed to use the cream at least once a day, for 4 weeks.
# (§2) Volunteers were instructed to apply the product only on one side of the body, on the worst affected area at least once a day, for 4 weeks, while the other side was defined as the control area and was not treated.
# Each volunteer was examined at baseline (T0), after two weeks (T1) and after 4 weeks of using the product (T2). The study Director rated the state of the skin according to the parameters of scales severity, thickness of the plaque, redness and the size of the lesions. Erythema level was documented at each time point.
# The following parameters were evaluated:
# a) Size of lesion b) Thickness of lesion
# The parameters mentioned above were evaluated on a scale of 0 to 5 by the study director.
# (§3) A statistical comparison between T0 and the other two time-points (T1 and T2) and between the treated and the Control areas were made by paired sample t-test, while p<0.05 indicated a significant difference
# The results of 15 volunteers at each time point are presented in the Tables below and in the relevant Figures. All parameters were assessed in a scale of 0-5 where 0=none and 5=very extreme
# [4] = system: volunteers with psoriasis; experiment: Psoriasis trial: erythema level by Mexameter; conditions: treated area
# Protocol: as §1, §2
# Erythema level was evaluated by Mexameter, Courage & Khazaka, CK. The probe of the Mexameter was placed on the skin at a constant pressure find measurements of skin hydration were taken. Skin erythema level was recorded at baseline, after 2 weeks and after 4 weeks of treatment.
# as §3
# [5] = system: healthy female volunteers, facial wrinkles; experiment: Anti wrinkle test: volunteers' subjective assessment of wrinkles; conditions: treated side, scale 0-10
# Protocol: (§4) Ten healthy female volunteers were included and completed the study.
# A subjective assessment of facial wrinkles condition was performed by the volunteers at each time point.
# (§5) A cosmetic anti wrinkle product MW-001 was applied on half of the face for four weeks by each volunteer while the other half served as a control, without any product application during the whole test period.
# The volunteers filled out a questionnaire after 2 and 4 weeks of application.
# The volunteers were asked to answer a questionnaire after four weeks of application, regarding the assessment of each of the tested products, and to evaluate the improvement of the skin beneath and at the side of the eye.
# [6] = system: volunteers with Atopic dermatitis; experiment: Atopic dermatitis trial: transepidermal water loss (TEWL) by Tewameter; conditions: treated area
# Protocol: (§6) Ten volunteers aged 2-30 years participated in the trial. Four females and six males.
# (§7) Volunteers were instructed to apply the product only on one side of the body, on the worst affected area, while the other side was defined as the control area and was not treated. The tested material, a body lotion product, was applied 1-3 times a day for a period of 4 weeks.
# Transepidermal water loss (TEWL) was measured by Tewameter 300 TM, Courage & Khazaka, CK. TEWL was recorded at baseline and after one week and after two weeks of treatment. Room temperature and humidity were kept constant.
# (§8) A statistical comparison between T0 and the other two time-points (T1 and T2) and between the treated and the Control areas were made according to the Wilcoxon signed-ranks test, while p<0.05 indicated a significant difference
# [7] = system: healthy female volunteers, facial skin; experiment: Anti wrinkle test: hydration level by Corneometer; conditions: face, treated area
# Protocol: as §4
# Moisture level of the skin (corneometry) and TEWL (Trans Epidermal Water Loss) were measured at each time point.
# as §5
# Hydration level was evaluated by Corneometer, Courage & Khazaka, CK. The probe of the corneometer was placed on the skin at a constant pressure and measurements of skin hydration were taken. Skin hydration was recorded at T0, T1 and T2. Each measurement was repeated three times, and the average of the repeated measurements was calculated and assembled in the test results. The room temperature and humidity were kept constant.
# The corneometry results are provided in arbitrary units.
# [8] = system: volunteers with Atopic dermatitis; experiment: Atopic dermatitis trial: subjective pruritus intensity; conditions: for Change in Pruritus level / Pruritus level: treated area; for Pruritus level: scale 0-5
# From the text: as §6, §7
# The volunteers were asked to assess the pruritus intensity on a 0-5 scale at T0, T1 and T2. • 0=None • 1=Slight • 2=Moderate • 3=Severe • 4=Extreme • 5=Very Extreme
# as §8
# [9] = treatment area, after 4 weeks, p<0.05
compound,measurement,setting,value
CCC=CCC=CCC=CCC=CCC=CCC=CCCC(=O)N1CC(O)CC1C(=O)O (stereo in doubt) [MW-001],Side effects / safety,[1],None of the volunteers reported of any side effects; also recorded: safe for use
same,Side effects / safety,[2],None of the participants had side effects; also recorded: safe for use
same,Overall efficacy conclusion,[3],efficient in the treatment of psoriasis
same,"Lesion area size, statistical analysis of decrease",[3]; after 4 weeks of application,insignificant
same,"Scale parameter, treatment side versus control side",[3]; after both 2 weeks (T1) and 4 weeks (T2),Significant differences
same,"Redness parameter, statistical analysis of change","[3]; any of the sides, whole study period, p>0.05",No significant change
same,Redness level,"[3]; T0 baseline, scale 0-5",3.3
same,Scale level,"[3]; T0 baseline, scale 0-5",4.5
same,Thickness of the Skin,"[3]; T0 baseline, scale 0-5",3.0
same,Infected area size,"[3]; T0 baseline, scale 0-5, 15 volunteers",4.1
same,Infected area size,"[3]; T1 after two weeks, scale 0-5",3.8
same,Redness level,"[3]; T1 after two weeks, scale 0-5",3.5
same,Scale level,"[3]; T1 after two weeks, scale 0-5",4.1
same,Thickness of the Skin,"[3]; T1 after two weeks, scale 0-5",2.6
same,Infected area size,"[3]; T2 after four weeks, scale 0-5",3.9
same,Redness level,"[3]; T2 after four weeks, scale 0-5",3.2
same,Scale level,"[3]; T2 after four weeks, scale 0-5",3.8
same,Thickness of the Skin,"[3]; T2 after four weeks, scale 0-5",2.4
same,"Lesion area size, statistical analysis of change","[3]; treatment area, after 2 weeks of application",significant decrease
same,"Scales parameter, statistical analysis of change",[3]; [9],significant improvement
same,"Thickness parameter, statistical analysis of change",[3]; [9],significant improvement
same,Erythema level,[4]; T0 baseline,562.1
same,Erythema level,[4]; T1 after two weeks,517.5
same,Erythema level,[4]; T2 after four weeks,576.7
same,Volunteers' grading of improvement of wrinkle appearance,[5]; after 2 weeks of treatment,3.5
same,Volunteers' grading of wrinkle improvement around the eyes,[5]; after 2 weeks of treatment,3.5
same,Volunteers' grading of wrinkle improvement around the eyes,[5]; after 4 weeks of treatment,4.3
same,Volunteers' grading of improvement in wrinkles appearance,[5]; printed 'After 2 weeks of treatment' (second statement),4.6
same,Change in TEWL level,[6]; Baseline,100%
same,TEWL level,[6]; T0 baseline,13.6 g/m2/h
same,TEWL level,[6]; T1 after one week,12.5 g/m2/h
same,TEWL level,[6]; T2 after two weeks,10.5 g/m2/h
same,Change in TEWL level,"[6]; Week 1, relative to baseline",92%
same,Change in TEWL level,"[6]; Week 2, relative to baseline",78%
same,Average hydration level,[7]; T0 baseline,60.9 arbitrary units
same,Average hydration level,[7]; T1 after 2 weeks of use,53.4 arbitrary units
same,Average hydration level,[7]; T2 after 4 weeks of use,53.5 arbitrary units
same,"Pruritus level, statistical analysis of change","[8]; after 1 and 2 weeks of treatment, only at the treated area",decreased significantly
same,Change in Pruritus level,[8]; Baseline,100%
same,Pruritus level,[8]; T0 baseline,3.4
same,Pruritus level,[8]; T1 after one week,1.4
same,Pruritus level,[8]; T2 after two weeks,0.9
same,Change in Pruritus level,"[8]; Week 1, relative to baseline",41%
same,Change in Pruritus level,"[8]; Week 2, relative to baseline",26%
